Assay results reported in BindingDB's records for doi:10.1021/jm950543x (University of Caen Normandy, 1996).

Test: Binding affinity for 5-hydroxytryptamine 2C receptor

- IC50: 355 nM
SMILES: CN1CCN(c2nc3sccc3n3cccc23)CC1
